{
  "source": "patent US20110008279A1",
  "about": "“Methods and Compositions Relating to Adhesins as Adjuvants” (priority 2005, published 2011)",
  "key": {"[1]": {"experiment": "Heparin-agarose affinity chromatography", "assay_type": "binding", "details": "salt gradient 0.05-3M NaCl", "method": "Using, affinity chromatography with different buffers (phosphate 20 mM and hepes 20 mM), pH (5.5, 7.4 and 8.0) and CaCl2 concentrations, the binding of NadA to heparin was further investigated. A solution of hepes 20 mM containing 5 μg NadA was added to 100 μl of heparin-agarose pre-equilibrated in the same buffer. After washing, bound protein was eluted using a salt gradient (0.05-3M NaCl). All the fractions from the previous steps were collected and transferred to nitrocellulose membrane using Dot-blot. The protein was detected with a rabbit polyclonal anti-NadA antibody and phosphatase alcalyne-conjugated goat anti-rabbit anti-IgG with its substrate. This protocol has shown a heterogeneous behaviour for NadA. A fraction of the protein elutes at physiological salt concentrations (100-150 mM NaCl) and a further one elutes at high salt concentrations (up to 3M NaCl)."}, "mo-DCs [2]": {"system": "mo-DCs", "experiment": "Expression of maturation markers on mo-DCs (flow cytometry)", "assay_type": "cell-based, human", "details": "for CD86 expression on co-stimulation with R-848: R-848 1 μM, NadA 1.5 μM", "method": "Reagents used were tested for low endotoxin contamination using the Limulus amoebocyte assay (Sigma). Dendritic cells were generated from human peripheral blood mononuclear cells (PBMC) as described previously. In brief, PBMC were isolated from buffy coats of healthy donors by Ficoll-Paque Plus density gradient centrifugation (Amersham Pharmacia Biotech AB). Separate monocyte and T-cell fractions were obtained from PBMCs by Percoll density gradient centrifugation (Amersham Pharmacia Biotech AB). […] DC were obtained by 6-d culture adherent monocytes in medium with 20 ng/ml IL-4 (5×10^6 units/mg, Peprotech) and 50 ng/ml GM-CSF (1×10^7 units/mg, Peprotech). Cytokines were added again on day 4 in RPMI-1640 medium supplemented with 10% FBS. […] After 24 h cells were harvested and analysed. Culture supernatants were collected frozen in liquid nitrogen and conserved at −80° C. for cytokine analysis.\nAfter differentiation, DC were routinely stained with phycoerytrin conjugated monoclonal antibodies to human CD14, CD1a, CD83, CD86 (B7.2), CD80 (B7.1), MHC II (HLA-DR), purchased from BD-Pharminghen and Caltag. In parallel, cells were stained with the isotype matched control mAb. Cells were immunostained with the proper dilution of PE-conjugated anti human monoclonal antibodies at 4° C. for 30 min in 100 μl of phosphate-buffered saline pH 7.2 (PBS, GIBCO BRL) containing 1% FBS and 0.1% NaN3 (FACS buffer). After washing, propidium iodide was added to exclude dead cells and cell fluorescence intensities of the gated populations were measured with a EPICS XL-MCL (Coulter) flow cytometer and analyzed with EXPO 32ADC XL 3COLOR or WinMDI 2.8. software. Data were collected on 10000-20000 events."}, "mo-DCs [3]": {"system": "mo-DCs", "experiment": "Real-time PCR of cytokine mRNA in mo-DCs", "assay_type": "cell-based, human", "method": "Mo-DC were pre-treated or not with IFN-γ 1000 U/ml and stimulated with NadA […] and LPS […] for 3-5-8 h. Treated and untreated cells were pelleted and used for RNA isolation. Total RNA was extracted using the TRIzolÒ reagent (GibcoBRL) according to the manufacturer's instruction, precipitated and resuspended in […] of RNAse free water (Gibco). RNA was quantified with a fluorescence spectrophotometer (BeckmanDU 530). First strand cDNA was prepared from […] of total RNA by using the Superscript™ II Reverse Transcriptase (Invitrogen) with oligodT primers (Sigma Genosys). The cDNA levels of IL12p35, IL12p40, IL-23p19, TNF-α and IL-6 were quantified by Real Time quantitative PCR using a qPCRTM Core Kit for Sybr Green I (Eurogentec) with a GeneAmp 5700 Sequence Detection System according to the manifacturer's instructions (Applied Biosystems). After an initial denaturation step at 95° C. for 10 min, temperature cycling was initiated. Each cycle consisted of 30 sec at 95° C. and 30 sec at 60° C. […]\nAll amplification products were cloned into a TOPO TA vector (Invitrogen) and quantified by Beckman DU 530 spectrophotometer. […]\nThe cDNA levels during the linear phase of amplification were normalized against HMBS. […] CT values were determined by the GeneAmp 5700 SDS software using fluorescence threshold manually set and exported into Excel for analysis."}, "[4]": {"system": "alternative pathway in the complement system", "experiment": "Bactericidal assay, complement alternative pathway (NHS, Mg2+/EGTA, E. coli-pET)", "assay_type": "biochemical, human", "details": "3 μM, control E. coli-pET", "method": "Complement activation by the alternative pathway was also investigated. […] The susceptibility to complement-mediated lysis was determined by incubating E. coli-NadA and E. coli-pET with 0-75% NHS at 37° C. for 15 min under agitation. The number of surviving bacterial cells was measured by serial agar plating and colony counting."}, "naïve T cells": {"system": "naïve T cells", "experiment": "Intracellular detection of IFN-γ and IL-4 in T cells by flow cytometry", "assay_type": "cell-based, human", "details": "T cells activated by IFN-γ primed, matured mo-DCs", "method": "Mo-DC pre-treated in various conditions were co-cultured with naïve T cells for five days and re-stimulated with ionomycin 1 μg/ml and PMA 10 ng/ml for 2.5 h and for 3 h in the presence of a Brefeldin-A, (10 μg/ml final concentration). Cells were then washed and fixed for 15 min (Fix and Penn cell permeabilization kit, Caltag). After one washing step cells were permeabilised and stained with FITC conjugated anti interferon-γ mAB (BD-Pharmigen) and PE conjugated anti IL-4 mAb (Caltag) or with irrelevant isotype control for 30 min. Then cells were washed again, resuspended and analysed by flow cytoflorimetry."}, "human macrophages": {"system": "human macrophages", "experiment": "Morphology of macrophages (light microscopy)", "assay_type": "cell-based", "method": "DCs cultured for 5 days in 6-well plates (Costar) were treated with recombinant human IFN-γ (1000 U/ml) for 18 h before NadA (1.5 μM) or LPS (1 μg/ml) stimulation for 4 h. Control cultures were untreated cells or treated with IFN-γ alone.\nThe same experiment was also carried out using macrophages."}},
  "data": [
    {"substance": "NadAΔ351-405", "values": [
      {"measurement": "NaCl concentration of elution from heparin-agarose, further fraction", "setting": "[1]", "value": "up to 3 M"},
      {"measurement": "NaCl concentration of elution from heparin-agarose, one fraction", "setting": "[1]", "value": "100 to 150", "unit": "mM"},
      {"measurement": "CD86 expression on co-stimulation with R-848", "setting": "mo-DCs [2]; no IFN-γ priming", "value": "addition of the two effects"},
      {"measurement": "CD86 expression on co-stimulation with R-848", "setting": "mo-DCs [2]; after IFN-γ priming, flagellin 10 μg/ml", "value": "maximal CD86 expression"},
      {"measurement": "CD83 level relative to that induced by LPS", "setting": "mo-DCs [2]; after IFN-γ priming", "value": "~50", "unit": "%"},
      {"measurement": "CD86 expression, dose response", "setting": "mo-DCs [2]; after IFN-γ priming", "value": "effectively induced CD86 also in the submicromolar concentration range"},
      {"measurement": "CD86 level", "setting": "mo-DCs [2]; after IFN-γ priming", "value": "reached the same value observed in LPS-treated cells"},
      {"measurement": "IFN-γ potentiation of NadA effect on CD86", "setting": "mo-DCs [2]; at higher NadA concentrations", "value": "2-3 fold"},
      {"measurement": "CD86 expression, dose response", "setting": "mo-DCs [2]; no IFN-γ priming", "value": "not different from control cells below 1 μM NadA"},
      {"measurement": "plasma membrane HLA-DR expression", "setting": "mo-DCs [2]; no IFN-γ priming", "value": "partially increased"},
      {"measurement": "CD83 expression", "setting": "mo-DCs [2]; no IFN-γ priming, 24 hour exposure, 1 μM / 1.5 μM", "value": "not increased"},
      {"measurement": "IL12-p40, IL12-p35 and IL-23p19 transcription", "setting": "mo-DCs [3]", "value": "increased by NadA only if cells were primed with IFN-γ"},
      {"measurement": "transcription activities of genes encoding IL-6, TNFα, p40, p35 and p19 relative to LPS-activated cells", "setting": "mo-DCs [3]; IFN-γ primed mo-DCs", "value": "< 1", "unit": "%"},
      {"measurement": "effect on the alternative pathway", "setting": "[4]", "value": "partially inhibit"},
      {"measurement": "IFN-γ+ T cells, % of total T cell population", "setting": "naïve T cells", "value": "13-31%"},
      {"measurement": "IFN-γ+/IL-4+ T cells, % of total T cell population", "setting": "naïve T cells", "value": "4-12%"},
      {"measurement": "IL-4+ T cells, % of total T cell population", "setting": "naïve T cells", "value": "3-18%"},
      {"measurement": "cell clustering compared to LPS treatment", "setting": "human macrophages", "value": "reduced clustering"}
    ]}
  ]
}
